Test results published in patent US8426367B2, “Peptides specific for human blood outgrowth endothelial cells” (The University of North Carolina at Chapel Hill, priority 2007, dated 2013).

What was measured:
[1] = test system: panel of other cell types; experiment: Binding specificity: biopanning of HBOEC-selected phage clones on a panel of other cell types; design: species or system human; details: 1.10^11 phage, 1 hour at 4° C., FIG. 3
Experimental: Lymphocytes and neutrophils were obtained from the same preparation. Lymphocytes were collected from the supernatant of the cultured buffy coat mononuclear cells that were allowed to adhere for 48 hours. The cell concentration was adjusted to 1.10^5 cells per ml.
Neutrophils were collected from the lower portion of the density gradient preparation. The upper layers were removed and processed as described above. The neutrophil-rich Histopaque layer was transferred to a centrifuge tube and diluted in fresh RPMI to wash the cells free of Histopaque. The suspension was centrifuged at 700×g for 15 min at room temperature. The supernatant was aspirated and the pellet resuspended in 10 ml of RPMI and centrifuged at 700×g for 10 min at room temperature. Contaminating red cells were lysed by quickly re-suspending the pellet in sterile water at 4° C. After 30 sec an equal volume of 1.8% saline solution was added in order to return the solution to isotonicity. The suspension was then centrifuged for 10 min at 250×g at 4° C. The cell lysis step was repeated. The final pellet was re-suspended and concentration adjusted to 1.10^5 cells per ml.
(§1) HUVEC were from the American Type Culture Collection (ATCC, Manassas, Va.). Passages 4 to 8 were used in this study. HUVEC were cultured in EGM-MV medium (Cambrex) at 37° C. in an incubator with humid atmosphere and 5% CO2.
Peripheral blood human HL-60 promyelocytic cells from the American Type Culture Collection (ATCC) were cultured in RPMI 1640 medium supplemented with 20% fetal bovine serum.
The specificity of HBOEC-selected phage clones was determined by biopanning on a panel of other cell types. The biopanning procedure was carried as described above with the exception of including the pre-clearing incubation step.

[2] = test system: human blood outgrowth endothelial cells (HBOEC); experiment: Homogeneous phage recovery (relative binding) on HBOEC; details: for concentration dependence of homogeneous recovery (binding to HBOEC): 1.10^9, 1.10^10, 1.10^11 pfu, 1 h at 4° C.; for concentration dependence of homogeneous recovery (binding to HBOEC) / relative recovery / affinity-avidity among the four selected phage clones: FIG. 1B; for relative recovery / affinity-avidity among the four selected phage clones: four clones with different consensus motifs
Experimental: Cells at 80% confluence were detached by treating with 0.05% trypsin-EDTA, washed once with EGM-2 medium and resuspended in EGM-2 containing 1% BSA at 1.10^5 cells per ml. In the pre-clearing step, 1 ml of HUVEC suspension at 1.10^5 cells per ml were incubated with 10 μl of PhD-12 peptide phage display system (New England Biolabs, Beverly, Mass.) within 1.5 ml Eppendorf tube for 2 hours at 4° C.; the mixture was then centrifuged. In the screening step, the unbound phage pool remaining in the supernatant was transferred to a fresh tube and incubated with 1 ml of HBOEC at 1.10^5 cells per ml. After 1 hour incubation at 4° C., the cell-phage complexes were separated by centrifugation. Following five intensive washes with TBS-0.5% Tween-20 buffer the bound phage was non-specifically eluted with 0.2 M Glycine-HCl buffer (pH 2.2) for 10 min. The eluate was immediately neutralized by 1M Tris.HCl buffer (pH 9.0). An aliquot of the eluted phage was used for determining titer by plaque assay. The rest of the phage eluate was amplified in mid-log phase E. coli ER2738 (New England Biolabs), and purified by precipitation with polyethylene glycol. An aliquot of the amplified phage was subsequently re-applied to newly trypsinized cells for a total of three biopanning rounds and two amplification steps.
Once isolated individual phage clones were subjected to evaluation of relative binding. High titer stocks of homogeneous phage were generated. Serially diluted phage (1.10^9 pfu, 1.10^10 pfu, and 1.10^11 pfu) were incubated with HBOEC (1.10^5 cells) for 1 h at 4° C. and then subjected to the same wash protocol used for the selection experiments. In parallel the same procedure was carried in a blocked Eppendorf tube without HBOEC to test for non specific binding for each selected sequence to the plastic container. Binding ratio is defined as recovery of phage bound to the target cells normalized to the recovery of phage non-specifically bound to the plastic.

HUVEC = experiment: Cell binding assay: HUVEC attachment to peptide-modified substrates; assay type: cell-based, human; details: compared to RGE negative controls; FIG. 8D
Experimental: as §1
Peptide sequences were immobilized to methacrylic terpolymers via one step chain transfer controlled free radical polymerization as described by Fussell and Cooper (Fussell 2004a and Fussell 2004b). The monomers used in the reactions were n-hexyl methacrylate (HMA) (Alfa Aesar, Ward Hill, Mass.), methyl methacrylate (MMA) (ACROS Organics, Pittsburgh, Pa.), and methacrylic acid (MAA) (ACROS Organics, Pittsburgh, Pa.), with 2,2-azobisisobutyronitrile (AIBN) (Aldrich Chemical, Milwaukee, Wis.) as the initiator. The molar ratio of the monomers in the reaction mixture was HMA:MMA:MAA—20:78:2. The peptides were added with the monomers after the solvent was purged with argon. The reaction temperature for the polymerization was 55-60° C. and reactions were carried out overnight.
Peptide grafted materials were coated on round microscope cover glass slides. Glass slides were sterilized by immersion in 70% ethanol. […] Digital images were taken from 15 random fields per sample and quantified by computer assisted analysis.

Substance	recovery on cell types other than the target cells [1]	concentration dependence of homogeneous recovery (binding to HBOEC) [2]	binding ratio (recovery of phage bound to target cells normalized to phage non-specifically bound to plastic) ([2]; 1.10^11 pfu homogeneous phage, 1.10^5 HBOEC, 1 hour at 4° C., FIG. 2)	relative recovery among phage bearing the TP(S/T/G) motif ([2]; 1.10^11 pfu, FIG. 2)	relative recovery / affinity-avidity among the four selected phage clones [2]	HUVEC attachment (HUVEC)
TPSLEQRTVYAK (Human outgrowth endothelial cell-binding peptides isolated from phage library) [SEQ ID NO:17]	No significant recovery	bind HBOEC over a range of concentrations in a dose-dependent manner	43±20	highest recovery	highest recovery	–
SPPPSNAGSHHV (Human outgrowth endothelial cell-binding peptides isolated from phage library) [SEQ ID NO:32]	No significant recovery	bind HBOEC over a range of concentrations in a dose-dependent manner	–	–	–	–
MPTLTRAPHTAC (Human outgrowth endothelial cell-binding peptides isolated from phage library) [SEQ ID NO:37]	No significant recovery	bind HBOEC over a range of concentrations in a dose-dependent manner	–	–	lowest affinity/avidity	–
SVPPRYTLTLQW (Human outgrowth endothelial cell-binding peptides isolated from phage library) [SEQ ID NO:7]	No significant recovery	bind HBOEC over a range of concentrations in a dose-dependent manner	–	–	–	–
fibronectin	–	–	–	–	–	statistically significant
